Assay [1] addresses T1, AmaEcR (GAL4-EcR DEF with VP16-RXR-USP chimera) (Amblyomma americanum, UniProt O44338).
T1 sequence (O44338 255-570): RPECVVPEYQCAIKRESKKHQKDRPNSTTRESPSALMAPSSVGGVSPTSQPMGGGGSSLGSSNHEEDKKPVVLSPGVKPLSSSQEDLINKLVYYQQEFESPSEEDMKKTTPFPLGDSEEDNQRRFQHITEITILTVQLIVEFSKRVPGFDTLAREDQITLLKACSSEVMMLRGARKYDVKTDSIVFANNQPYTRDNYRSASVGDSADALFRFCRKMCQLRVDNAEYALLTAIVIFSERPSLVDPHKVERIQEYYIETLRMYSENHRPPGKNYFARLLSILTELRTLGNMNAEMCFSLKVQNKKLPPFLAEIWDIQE
T1 sequence (P28702 1-533 partner): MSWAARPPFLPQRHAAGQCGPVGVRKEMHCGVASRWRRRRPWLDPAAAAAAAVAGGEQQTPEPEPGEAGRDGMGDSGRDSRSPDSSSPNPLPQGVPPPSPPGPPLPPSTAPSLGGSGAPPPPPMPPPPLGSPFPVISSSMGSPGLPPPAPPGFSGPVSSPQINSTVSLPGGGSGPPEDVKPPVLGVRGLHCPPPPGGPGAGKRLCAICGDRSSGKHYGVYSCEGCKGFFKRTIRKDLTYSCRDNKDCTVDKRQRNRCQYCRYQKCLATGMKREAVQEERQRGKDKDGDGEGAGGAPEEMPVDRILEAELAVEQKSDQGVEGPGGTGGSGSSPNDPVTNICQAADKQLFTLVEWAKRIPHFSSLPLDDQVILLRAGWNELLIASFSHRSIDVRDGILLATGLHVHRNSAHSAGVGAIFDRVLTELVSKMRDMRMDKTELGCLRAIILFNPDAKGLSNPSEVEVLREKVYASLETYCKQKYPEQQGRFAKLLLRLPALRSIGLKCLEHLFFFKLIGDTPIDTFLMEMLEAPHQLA
The experiment in a line: Two-hybrid gene switch assay, luciferase reporter, AmaEcR, mouse NIH3T3 cells. As to conditions: EC50, FIG. 14A/14B, GAL4-EcR(DEF) with VP16-RXR-USP chimera. A general note: A reporter such as luciferase makes a cellular process visible.

The subject of assay [2] is NcEcR (GAL4-EcR DEF with VP16-RXR partner). The experiment in a line: Two-hybrid gene switch assay, luciferase reporter, NcEcR, mouse NIH3T3 cells. As to conditions: FIG. 14A/14B, GAL4-EcR(DEF).
In assay [3] the target is T2, wild-type CfEcR (GAL4-CfEcR-DEF with VP16-RXR-USP chimera) (Choristoneura fumiferana, UniProt O77255).
T2 sequence (O77255 219-541): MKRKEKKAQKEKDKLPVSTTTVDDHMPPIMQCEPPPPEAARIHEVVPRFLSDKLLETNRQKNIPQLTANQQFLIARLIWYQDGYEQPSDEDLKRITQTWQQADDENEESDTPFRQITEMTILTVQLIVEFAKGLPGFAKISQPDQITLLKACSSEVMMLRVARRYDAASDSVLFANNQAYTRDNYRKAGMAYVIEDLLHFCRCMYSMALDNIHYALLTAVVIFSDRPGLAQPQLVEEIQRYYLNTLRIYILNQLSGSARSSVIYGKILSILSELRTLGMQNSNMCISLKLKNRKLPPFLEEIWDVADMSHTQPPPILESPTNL
T2 sequence (P28702 1-533 partner): T1 sequence (P28702 1-533 partner)
Nature of the assay: Two-hybrid gene switch assay, luciferase reporter, wild-type CfEcR, mouse NIH3T3 cells.

Assay [4] addresses BmEcR (GAL4-EcR DEF with VP16-RXR-USP chimera) (Bombyx mori, UniProt P49881). Nature of the assay: Two-hybrid gene switch assay, luciferase reporter, BmEcR, mouse NIH3T3 cells. The class given is cell-based.
Assay [5] deals with T3, MsEcR (GAL4-EcR DEF with VP16-RXR-USP chimera) (Manduca sexta, UniProt P49883).
T3 sequence (P49883 1-556): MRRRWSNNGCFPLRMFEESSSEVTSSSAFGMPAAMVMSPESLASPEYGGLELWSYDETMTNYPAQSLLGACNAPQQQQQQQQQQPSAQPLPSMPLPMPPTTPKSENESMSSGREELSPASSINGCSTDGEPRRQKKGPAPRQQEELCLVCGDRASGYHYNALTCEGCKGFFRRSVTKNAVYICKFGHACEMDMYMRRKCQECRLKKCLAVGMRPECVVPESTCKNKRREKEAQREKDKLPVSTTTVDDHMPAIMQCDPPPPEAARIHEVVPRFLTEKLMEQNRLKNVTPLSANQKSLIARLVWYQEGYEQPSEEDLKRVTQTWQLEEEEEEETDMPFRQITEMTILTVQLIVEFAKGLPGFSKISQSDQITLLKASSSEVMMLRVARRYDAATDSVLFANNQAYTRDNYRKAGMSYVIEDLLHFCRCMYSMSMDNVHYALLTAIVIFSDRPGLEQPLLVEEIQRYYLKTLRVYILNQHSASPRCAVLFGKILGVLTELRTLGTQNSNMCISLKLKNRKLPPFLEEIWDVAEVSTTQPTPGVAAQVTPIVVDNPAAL
T3 sequence (P28702 1-533 partner): T1 sequence (P28702 1-533 partner)
The experiment in a line: Two-hybrid gene switch assay, luciferase reporter, MsEcR, mouse NIH3T3 cells. As to conditions: EC50, FIG. 13A/13B, GAL4-EcR(DEF) with VP16-RXR-USP chimera.

Assay [6] deals with T4, BaEcR (GAL4-EcR DEF with VP16-RXR-USP chimera) (Bemisia tabaci, UniProt A0A6M3RDR8).
T4 sequence (A0A6M3RDR8 115-530): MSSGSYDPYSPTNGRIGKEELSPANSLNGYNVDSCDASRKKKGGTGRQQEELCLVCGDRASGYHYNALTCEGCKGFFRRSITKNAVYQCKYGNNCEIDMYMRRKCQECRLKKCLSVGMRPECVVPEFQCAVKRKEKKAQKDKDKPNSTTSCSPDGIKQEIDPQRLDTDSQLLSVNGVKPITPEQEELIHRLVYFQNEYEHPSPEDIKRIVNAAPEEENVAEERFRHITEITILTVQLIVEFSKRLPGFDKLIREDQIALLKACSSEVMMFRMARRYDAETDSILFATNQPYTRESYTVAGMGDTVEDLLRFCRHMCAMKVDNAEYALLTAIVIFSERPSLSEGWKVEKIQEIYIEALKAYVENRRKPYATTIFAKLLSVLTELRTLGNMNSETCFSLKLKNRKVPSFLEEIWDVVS
T4 sequence (P28702 1-533 partner): T1 sequence (P28702 1-533 partner)
The experiment in a line: Two-hybrid gene switch assay, luciferase reporter, BaEcR, mouse NIH3T3 cells. As to conditions: EC50, FIG. 14A/14B, GAL4-EcR(DEF) with VP16-RXR-USP chimera.

The target of assay [7] is wild-type Aedes aegypti EcR (AaEcR; GAL4-EcR DEF with VP16-RXR-USP chimera) (Aedes aegypti, UniProt P49880). Nature of the assay: Two-hybrid gene switch assay, luciferase reporter, wild-type AaEcR, mouse NIH3T3 cells. The class given is cell-based. The following applies: GAL4-EcR(DEF) with VP16-RXR-USP chimera.
Setting [8] is: EC50, FIG. 13A/13B, BmEcR, GAL4-EcR(DEF) with VP16-RXR-USP chimera.

The structures appear in SMILES notation. Like-named read-outs stand apart in the source and are kept apart here.

As a reminder, the EC50 is the concentration that produces a half-maximal response.

BmEcR (GAL4-EcR DEF with VP16-RXR-USP chimera), sequence (P49881 other isoform, or with tags, fused parts or gaps, change not shown): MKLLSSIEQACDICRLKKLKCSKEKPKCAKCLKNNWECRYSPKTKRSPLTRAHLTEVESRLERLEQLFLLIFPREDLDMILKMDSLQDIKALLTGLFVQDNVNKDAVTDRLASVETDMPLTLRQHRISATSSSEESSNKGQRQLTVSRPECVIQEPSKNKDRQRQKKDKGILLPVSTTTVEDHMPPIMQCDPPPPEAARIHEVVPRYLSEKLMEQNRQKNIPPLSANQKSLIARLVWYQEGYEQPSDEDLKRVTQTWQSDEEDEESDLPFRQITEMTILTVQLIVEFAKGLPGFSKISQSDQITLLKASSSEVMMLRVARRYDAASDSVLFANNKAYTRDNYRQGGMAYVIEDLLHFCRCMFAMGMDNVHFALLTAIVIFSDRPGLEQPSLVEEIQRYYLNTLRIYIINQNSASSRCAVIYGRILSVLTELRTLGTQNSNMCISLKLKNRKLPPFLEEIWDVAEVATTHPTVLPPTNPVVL
wild-type Aedes aegypti EcR (AaEcR; GAL4-EcR DEF with VP16-RXR-USP chimera), sequence (P49880 with tags, fused parts or gaps limits assumed, change not shown): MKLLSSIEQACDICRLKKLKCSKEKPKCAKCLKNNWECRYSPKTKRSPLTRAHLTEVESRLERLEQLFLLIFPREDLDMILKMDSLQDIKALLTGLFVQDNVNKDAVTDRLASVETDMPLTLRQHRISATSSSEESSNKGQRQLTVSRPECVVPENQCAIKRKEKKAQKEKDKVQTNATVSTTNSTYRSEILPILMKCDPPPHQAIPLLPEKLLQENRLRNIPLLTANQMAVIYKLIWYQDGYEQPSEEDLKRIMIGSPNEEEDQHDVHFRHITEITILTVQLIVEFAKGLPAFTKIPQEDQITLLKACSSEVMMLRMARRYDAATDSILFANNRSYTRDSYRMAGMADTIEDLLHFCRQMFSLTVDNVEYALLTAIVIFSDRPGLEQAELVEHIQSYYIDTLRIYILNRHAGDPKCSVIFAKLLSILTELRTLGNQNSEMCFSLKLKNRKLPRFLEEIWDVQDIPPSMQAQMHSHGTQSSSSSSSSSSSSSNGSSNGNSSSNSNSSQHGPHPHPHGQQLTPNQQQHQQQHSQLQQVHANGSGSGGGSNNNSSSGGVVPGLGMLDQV

For `CC(C)(O)C(CCC(C)(O)C1CCC2(O)C3=CC(=O)C4CC(O)C(O)CC4(C)C3CCC12C)OC(=O)c1ccc[nH]1` (stereo not drawn) [canescensterone], the EC50 in assay [1] is about 0.3 µM; in assay [2] it was about 0.33 µM; in assay [3], over 10 µM; in assay [4], over 10 µM; in assay [5], over 10 µM; in assay [6] it was about 0.2 µM. Also, the EC50 in assay [7] (FIG. 14A/14B, read-out: EC50) was about 0.2 µM.

Take `CC(=O)OCC(=O)O[C@H](CCC(C)(C)O)[C@](C)(O)[C@H]1CC[C@@]2(O)C3=CC(=O)[C@@H]4C[C@@H](O)[C@@H](O)C[C@]4(C)[C@H]3CC[C@]12C` [20-hydroxyecdysone 22-acetoxyacetate]: the EC50 in assay [1] was about 3.3 µM; in assay [2], 0.755 µM; in assay [3], over 33 µM; in assay [4], over 33 µM; in assay [5], about 10 µM; in assay [6], about 12 µM. Besides, in assay [7] (FIG. 14A/14B, read-out: EC50), the EC50 is about 3.3 µM.

With `CC(C)(O)CC[C@@H](O)[C@](C)(O)[C@H]1CC[C@@]2(O)C3=CC(=O)[C@@H]4C[C@@H](O)[C@@H](O)C[C@]4(C)[C@H]3[C@H](O)C[C@]12C` [turkesterone], the EC50 was about 10 µM in assay [1]; 1.35 µM in assay [2]; over 33 µM in assay [3]; over 33 µM in assay [4] (setting [8]); about 12 µM in assay [5]; about 20 µM in assay [6]. The same molecule displayed an EC50 in assay [7] (EC50, FIG. 14A/14B) of 3.37 µM.

As for `CCC(=O)OC1CC2(C)C(C(C)(O)C(O)CCC(C)(C)O)CCC2(O)C2=CC(=O)C3CC(O)C(O)CC3(C)C21` (stereo not drawn) [turkesterone-11 a -propionate], the 50% effective concentration (EC50) was about 10 µM in assay [1]; about 10 µM in assay [2]; over 33 µM in assay [3]; over 33 µM in assay [4] (setting [8]); over 33 µM in assay [5]; over 33 µM in assay [6]. This molecule also returned an EC50 in assay [7] (EC50, FIG. 14A/14B) of about 15 µM.

Take `CC(C)(O)CC[C@@H](O)[C@](C)(O)[C@H]1CC[C@@]2(O)C3=CC(=O)[C@@H]4C[C@@H](O)[C@@H](O)[C@@H](O)[C@]4(C)[C@H]3CC[C@]12C` [integristerone A]: the EC50 in assay [1] was about 10 µM; in assay [2], about 2 µM; in assay [3] it was over 33 µM; in assay [4] (read-out: EC50) it was over 33 µM; in assay [5] it was about 12 µM; in assay [6], about 20 µM. For the same molecule, the EC50 in assay [7] (FIG. 14A/14B, read-out: EC50) was about 10 µM.

For the molecule `CC(CC(O)C(C)(O)C1CCC2(O)C3=CC(=O)C4CC(O)C(O)CC4(C)C3CCC12C)C(C)(C)O` (stereo not drawn) [makisterone A], the half-maximal effective concentration (EC50) in assay [1] was 1.4 µM; in assay [2], 0.117 µM; in assay [3], over 33 µM; in assay [4] (read-out: EC50), over 33 µM; in assay [5], about 10 µM; in assay [6], about 15 µM. Further, in assay [7] (FIG. 14A/14B, read-out: EC50), the EC50 was 3.33 µM.

In the case of `CC(C)CC[C@@H](O)[C@](C)(O)[C@H]1CC[C@@]2(O)C3=CC(=O)[C@@H]4C[C@@H](O)[C@@H](O)C[C@]4(C)[C@H]3[C@H](O)C[C@]12C` [ajugasterone C], the EC50 is about 0.2 µM in assay [1]; 0.08 µM in assay [2]; about 20 µM in assay [3]; about 10 µM in assay [4] (setting [8]); about 7 µM in assay [5]; 2.06 µM in assay [6]. In assay [7] (EC50, FIG. 14A/14B), the EC50 is 0.07 µM.

In the case of `CC(C)(O)CC[C@@H](O)[C@](C)(O)[C@H]1CC[C@@]2(O)C3=C[C@H](O)[C@@H]4C[C@@H](O)[C@@H](O)C[C@]4(C)[C@H]3CC[C@]12C` [Compound 6a-hydroxy-20-hydroxyecdysone], the EC50 in assay [1] was 10 µM; in assay [2], about 10 µM; in assay [3], over 33 µM; in assay [4] it was over 33 µM; in assay [5], over 33 µM; in assay [6], over 33 µM. In assay [7] (FIG. 14A/14B, read-out: EC50), the EC50 was about 12 µM.

On to `CC(C)(O)CC[C@@H](O)[C@](C)(O)[C@H]1CC[C@@]2(O)C3=C[C@@H](O)[C@@H]4C[C@@H](O)[C@@H](O)C[C@]4(C)[C@H]3CC[C@]12C` [Compound 6b-hydroxy-20-hydroxyecdysone], for which the EC50 is about 3.3 µM in assay [1]; 1.7 µM in assay [2]; over 33 µM in assay [3]; over 33 µM in assay [4]; about 12 µM in assay [5]; about 20 µM in assay [6]. Moreover, in assay [7] (FIG. 14A/14B, read-out: EC50), the EC50 is about 6 µM.

For `CC(C)=CC[C@@H](O)[C@](C)(O)[C@H]1CC[C@@]2(O)C3=CC(=O)[C@@H]4C[C@@H](O)[C@@H](O)C[C@]4(C)[C@H]3CC[C@]12C` [stachysterone C], the EC50 in assay [1] is about 0.1 µM; in assay [2], 0.013 µM; in assay [3] it was about 10 µM; in assay [4] (setting [8]), about 5 µM; in assay [5], 0.672 µM; in assay [6], 0.658 µM. Besides, the EC50 in assay [7] (EC50, FIG. 14A/14B) was 0.044 µM.

Regarding `CC(C)(O)CC[C@@H](O)[C@](C)(O)[C@H]1CC[C@@]2(O)C3=CC(=O)[C@@H]4C[C@H]5OC(C)(C)O[C@H]5C[C@]4(C)[C@H]3CC[C@]12C` [20-hydroxyecdysone-2,3-acetonide], the EC50 in assay [1] is about 7 µM; in assay [2], 2.9 µM; in assay [3], over 33 µM; in assay [4] it was over 33 µM; in assay [5], about 10 µM; in assay [6], about 15 µM. The EC50 in assay [7] (FIG. 14A/14B, read-out: EC50) is about 15 µM.

Turning to `C[C@H](CO)CC[C@@H](O)[C@](C)(O)[C@H]1CC[C@@]2(O)C3=CC(=O)[C@@H]4C[C@@H](O)[C@@H](O)C[C@]4(C)[C@H]3CC[C@]12C` [(25S)-inokosterone], the concentration giving a half-maximal response (EC50) in assay [1] is about 3.3 µM; in assay [2], about 1.5 µM; in assay [3], over 33 µM; in assay [4] (read-out: EC50), over 33 µM; in assay [5], about 10 µM; in assay [6], about 10 µM. For the same molecule, the EC50 in assay [7] (FIG. 14A/14B, read-out: EC50) was about 4 µM.

The values above are taken from patent US8536354B2, “Steroidal ligands and their use in gene switch modulation” (Intrexon Corporation, priority 2008, dated 2013).
